Read-outs that look alike come from different tables or passages of the source. Numbered stars: 1 amine (or outer) side, 2 acyl side, 3 side chain; on linkers, the order of the positions; unused ones are H or OH. Bridge positions count the residues as written; N and C are the ends. Square brackets hold non-standard residues; d marks the D form. Peptide text beside a SMILES is read from it. * marks the point of attachment. C20 diacid = O=C(O)CCCCCCCCCCCCCCCCCCC(=O)*; γGlu = O=C(O)[C@H](CCC(=O)[*:2])N[*:1]; NMeI = CC[C@H](C)[C@H](NC)C(=O)O; Sar = CNCC(=O)O
Columns and labels:
[1] = Solubility assessment (turbidity absorbance at 325 nm); type: physicochemical; settings: stock 2 mg/ml diluted 1:1, ambient temperature (typically 25°C), n=1; for Solubility, Acetate buffer pH 4: 100 mM acetate buffer pH 4.0; for Solubility, Acetate buffer pH 5: 100 mM acetate buffer pH 5.0; for Solubility, Histidine buffer pH 6: 100 mM histidine buffer pH 6.0; for Solubility, Histidine buffer pH 7: 100 mM histidine buffer pH 7.0; for Solubility, Phosphate buffer pH 6: 100 mM phosphate buffer pH 6.0; for Solubility, Phosphate buffer pH 7: 100 mM phosphate buffer pH 7.0; for Solubility, Phosphate buffer pH 7.5: 100 mM phosphate buffer pH7.5
Summary of the method: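 Stock 2 mg/ml peptide, H2O/HCl pH 2.5; 1:1 into 100 mM buffers: acetate pH 4.0/5.0, His pH 6.0/7.0, phosphate pH 6.0/7.0/7.5. A280 + A325, ~25°C, n=1. Soluble ≥ 1 mg/ml if A325 ≤ 0.02.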

[2] = target: T1, human amylin receptor 3 (hAMYR3) consisting of hCTR2 co-expressed with human Receptor Activity Modifying Protein 3 (hRAMP3) (Homo sapiens, UniProt O60896+P30988); experiment: hAMYR3 assay: induction of cAMP (AlphaScreen cAMP Assay kit) in COS7 cells expressing hAMYR3; type: cell-based
T1 construct: expressed in transfected cells
T1 sequence (P30988 25-474): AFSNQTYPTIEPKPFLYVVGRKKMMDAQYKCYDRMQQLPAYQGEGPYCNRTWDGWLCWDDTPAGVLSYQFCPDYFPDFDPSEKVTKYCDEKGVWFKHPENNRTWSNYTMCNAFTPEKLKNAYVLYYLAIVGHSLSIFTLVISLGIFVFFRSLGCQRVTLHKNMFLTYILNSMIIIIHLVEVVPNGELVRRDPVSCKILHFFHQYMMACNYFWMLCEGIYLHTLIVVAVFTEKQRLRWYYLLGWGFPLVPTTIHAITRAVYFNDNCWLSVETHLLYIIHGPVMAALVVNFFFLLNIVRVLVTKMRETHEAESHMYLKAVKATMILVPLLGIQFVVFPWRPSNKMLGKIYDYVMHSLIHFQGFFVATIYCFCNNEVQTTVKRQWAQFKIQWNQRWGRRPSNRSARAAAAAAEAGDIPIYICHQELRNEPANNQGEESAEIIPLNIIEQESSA
T1 sequence (O60896 24-148 partner): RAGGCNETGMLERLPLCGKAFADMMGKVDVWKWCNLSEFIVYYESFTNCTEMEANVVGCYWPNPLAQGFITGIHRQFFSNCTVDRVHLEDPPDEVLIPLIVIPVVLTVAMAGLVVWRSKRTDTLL
Summary of the method: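 Stable COS7 clone co-expressing hCTR2 and hRAMP3, stimulated 15 min at 37° C with increasing peptide in Tyrode buffer pH 7.4 with 100 µM IBMX and 0.1% casein. cAMP measured by AlphaScreen after lysis; EC50 and % efficacy versus pramlintide from 4PL fit.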

[3] = Assessment of physical stability: fibril formation detected with Thioflavin T (ThT), lag-time; type: physicochemical; settings: 1 mg/ml peptide, 40 µM ThT, FND = Fibrillation not detected; for Fibrillation lag time (hours) pH 4.0 (Ac): 50 mM acetate buffer pH 4.0, 96 hours at 40°C; for Fibrillation lag time (hours) pH 7.0 (His): 50 mM histidine buffer pH 7.0, 96 hours at 40°C; for Fibrillation lag time (hours) pH 7.0 (Ph): 50 mM phosphate buffer pH 7.0, 96 hours at 40°C
Summary of the method: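 Test peptide at 1 mg/ml with 40 µM ThT in 50 mM phosphate (pH 7.0), 50 mM histidine (pH 7.0) or 50 mM acetate (pH 4.0), in triplicate, 40° C. for 96 h. Fluorescence read every 10 min after 300 s agitation. Lag-time (h) taken as intersection of linear fits to initial stable and growth phases.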

[4] = cAMP induction in COS7 cells expressing hAMYR3, average of a minimum of 3 determinations, read-out: hAMY R3 EC50

Solubility, Acetate buffer pH 4 [1] | Solubility, Acetate buffer pH 5 [1] | Solubility, Histidine buffer pH 6 [1] | Solubility, Histidine buffer pH 7 [1] | Solubility, Phosphate buffer pH 6 [1] | Solubility, Phosphate buffer pH 7 [1] | Solubility, Phosphate buffer pH 7.5 [1] | Fibrillation lag time (hours) pH 4.0 (Ac) [3] | Fibrillation lag time (hours) pH 7.0 (His) [3] | Fibrillation lag time (hours) pH 7.0 (Ph) [3] | EC50 [2, 4] | SMILES | EC50 [2]
SS (SS indicates solubility ≥ 1mg/ml) | II (II indicates solubility ≤ 1 mg/ml) | SS (SS indicates solubility ≥ 1mg/ml) | SS (SS indicates solubility ≥ 1mg/ml) | SS (SS indicates solubility ≥ 1mg/ml) | SS (SS indicates solubility ≥ 1mg/ml) | SS (SS indicates solubility ≥ 1mg/ml) | FND | FND | FND | 0.14 nM | CC[C@H](C)[C@@H](C(=O)N[C@@H](CC(C)C)C(=O)N[C@@H](CO)C(=O)N[C@@H](CO)C(=O)N[C@H](C(=O)N[C@@H](CC(=O)O)C(=O)N[C@H](C(=O)NCC(=O)N[C@@H](CO)C(=O)N[C@@H](CC(=O)O)C(=O)N[C@H](C(=O)N1CCC[C@H]1C(N)=O)[C@@H](C)O)C(C)C)[C@@H](C)O)N(C)C(=O)[C@H](C)NC(=O)CN(C)C(=O)[C@H](Cc1ccccc1)NC(=O)[C@H](CO)NC(=O)[C@H](CO)NC(=O)[C@H](CO)NC(=O)[C@H](CO)NC(=O)[C@H](CCCNC(=N)N)NC(=O)[C@H](Cc1c[nH]cn1)NC(=O)[C@H](CC(C)C)NC(=O)[C@H](Cc1ccccc1)NC(=O)[C@H](CCC(=O)O)NC(=O)[C@H](C)NC(=O)[C@H](CC(C)C)NC(=O)[C@H](CCCNC(=N)N)NC(=O)[C@H](CCC(N)=O)NC(=O)[C@@H](NC(=O)[C@H](C)NC(=O)[C@@H]1CSSC[C@H](NC(=O)[C@H](CCCNC(=N)N)NC(=O)CC[C@H](NC(=O)CCCCCCCCCCCCCCCCCCC(=O)O)C(=O)O)C(=O)N[C@@H](CC(N)=O)C(=O)N[C@@H]([C@@H](C)O)C(=O)N[C@@H](C)C(=O)N[C@@H]([C@@H](C)O)C(=O)N1)[C@@H](C)O [Compound 73, [19CD]-isoGlu-RC()NTATC()ATQRLAEFLHRSSSSF-Gly(Me)-A-Ile(Me)-LSSTDVGSDTP-NH2] ({C20 diacid-γGlu}-RCNTATCATQRLAEFLHRSSSSF[Sar]A[NMeI]LSSTDVGSDTP-NH2; disulfide 2-7) | –
SS (SS indicates solubility ≥ 1mg/ml) | II (II indicates solubility ≤ 1 mg/ml) | SS (SS indicates solubility ≥ 1mg/ml) | SS (SS indicates solubility ≥ 1mg/ml) | SS (SS indicates solubility ≥ 1mg/ml) | SS (SS indicates solubility ≥ 1mg/ml) | SS (SS indicates solubility ≥ 1mg/ml) | FND | FND | FND | 0.24 nM | CC[C@H](C)[C@@H](C(=O)N[C@@H](CC(C)C)C(=O)N[C@@H](CO)C(=O)N[C@@H](CO)C(=O)N[C@H](C(=O)N[C@@H](CCC(=O)O)C(=O)N[C@H](C(=O)NCC(=O)N[C@@H](CO)C(=O)N[C@@H](CCC(=O)O)C(=O)N[C@H](C(=O)N1CCC[C@H]1C(N)=O)[C@@H](C)O)C(C)C)[C@@H](C)O)N(C)C(=O)[C@H](C)NC(=O)CN(C)C(=O)[C@H](Cc1ccccc1)NC(=O)[C@H](CO)NC(=O)[C@H](CO)NC(=O)[C@H](CO)NC(=O)[C@H](CO)NC(=O)[C@H](CCCNC(=N)N)NC(=O)[C@H](Cc1c[nH]cn1)NC(=O)[C@H](CC(C)C)NC(=O)[C@H](Cc1ccccc1)NC(=O)[C@H](CCC(=O)O)NC(=O)[C@H](C)NC(=O)[C@H](CC(C)C)NC(=O)[C@H](CCCNC(=N)N)NC(=O)[C@H](CCC(N)=O)NC(=O)[C@@H](NC(=O)[C@H](C)NC(=O)[C@@H]1CSSC[C@H](NC(=O)[C@H](CCCNC(=N)N)NC(=O)CC[C@H](NC(=O)CCCCCCCCCCCCCCCCCCC(=O)O)C(=O)O)C(=O)N[C@@H](CC(N)=O)C(=O)N[C@@H]([C@@H](C)O)C(=O)N[C@@H](C)C(=O)N[C@@H]([C@@H](C)O)C(=O)N1)[C@@H](C)O [Compound 76, [19CD]-isoGlu-RC()NTATC()ATQRLAEFLHRSSSSF-Gly(Me)-A-Ile(Me)-LSSTEVGSETP-NH2] ({C20 diacid-γGlu}-RCNTATCATQRLAEFLHRSSSSF[Sar]A[NMeI]LSSTEVGSETP-NH2; disulfide 2-7) | –

SMILES | Solubility, Acetate buffer pH 4 [1] | Solubility, Acetate buffer pH 5 [1] | Solubility, Histidine buffer pH 6 [1] | Solubility, Histidine buffer pH 7 [1] | Solubility, Phosphate buffer pH 6 [1] | Solubility, Phosphate buffer pH 7 [1] | Solubility, Phosphate buffer pH 7.5 [1] | Fibrillation lag time (hours) pH 4.0 (Ac) [3] | Fibrillation lag time (hours) pH 7.0 (His) [3] | Fibrillation lag time (hours) pH 7.0 (Ph) [3] | EC50 [2, 4] | EC50 [2]
CC[C@H](C)[C@@H](C(=O)N[C@@H](CC(C)C)C(=O)N[C@H](CO)C(=O)N[C@@H](CO)C(=O)N[C@H](C(=O)N[C@@H](CC(N)=O)C(=O)N[C@H](C(=O)NCC(=O)N[C@@H](CO)C(=O)N[C@@H](CC(N)=O)C(=O)N[C@H](C(=O)N1CCC[C@H]1C(N)=O)[C@@H](C)O)C(C)C)[C@@H](C)O)N(C)C(=O)[C@H](C)NC(=O)CN(C)C(=O)[C@@H](Cc1ccccc1)NC(=O)[C@H](CC(N)=O)NC(=O)[C@H](CC(N)=O)NC(=O)[C@H](CO)NC(=O)[C@H](CO)NC(=O)[C@H](CCCNC(=N)N)NC(=O)[C@H](Cc1c[nH]cn1)NC(=O)[C@H](CC(C)C)NC(=O)[C@H](Cc1ccccc1)NC(=O)[C@H](CCC(=O)O)NC(=O)[C@H](C)NC(=O)[C@H](CC(C)C)NC(=O)[C@H](CCCNC(=N)N)NC(=O)[C@H](CCC(N)=O)NC(=O)[C@@H](NC(=O)[C@H](C)NC(=O)[C@@H]1CSSC[C@H](NC(=O)[C@H](CCCCN)NC(=O)CC[C@H](NC(=O)CCCCCCCCCCCCCCCCCCC(=O)O)C(=O)O)C(=O)N[C@@H](CC(N)=O)C(=O)N[C@@H]([C@@H](C)O)C(=O)N[C@@H](C)C(=O)N[C@@H]([C@@H](C)O)C(=O)N1)[C@@H](C)O [Compound 72, [19CD]-isoGlu-KC()NTATC()ATQRLAEFLHRSSNN-DPhe-Gly(Me)-A-Ile(Me)-L-DSer-STNVGSNTP] ({C20 diacid-γGlu}-KCNTATCATQRLAEFLHRSSNN[dF][Sar]A[NMeI]L[dS]STNVGSNTP-NH2; disulfide 2-7) | SS (SS indicates solubility ≥ 1mg/ml) | SS (SS indicates solubility ≥ 1mg/ml) | SS (SS indicates solubility ≥ 1mg/ml) | SS (SS indicates solubility ≥ 1mg/ml) | SS (SS indicates solubility ≥ 1mg/ml) | SS (SS indicates solubility ≥ 1mg/ml) | SS (SS indicates solubility ≥ 1mg/ml) | FND | FND | FND | – | 0.098 nM
